According to patent US11413241B2, “Method for preparing a composition with a low dissolved oxygen content, comprising acetaminophen, and optionally one or more NSAIDs, and a composition obtained thereof” (Hyloris Developments SA, priority 2017, dated 2022):
Each block holds one molecule with its values, some of them ahead of it.

Experiments:
[1] = Amount of acetaminophen at various points in time and different pH; type: physicochemical; conditions: pH range 6.3-7.3, various points in time
Description: The amount of acetaminophen was studied at varies points in time and for different pH's.

[2] = from literature; cited from earlier work
[3] = Dissolution/precipitation of sodium ibuprofen 2H2O alone in water at decreasing pH; type: physicochemical
[4] = Dissolution of sodium ibuprofen 2H2O in the acetaminophen-ibuprofen formulation at varying pH; type: physicochemical

- degradation of acetaminophen [1]: minimal degradation
Compound: CC(=O)Nc1ccc(O)cc1 [acetaminophen, N-(4-hydroxyphenyl)acetamide]
- pH at which rate of degradation is minimal [2]: ~6

- pH at which precipitation is observed ([3]; 3.85 mg/ml sodium ibuprofen 2H2O in water, pH gradually decreased): 5.75
- precipitation ([3]; pH 6, stored 1 month at 25° C.): showed precipitation
- precipitation ([3]; pH 6.2, stored 1 month at 25° C.): precipitation was absent
Compound: CC(C)Cc1ccc(C(C)C(=O)O)cc1 (stereo not shown) [ibuprofen]

- pH of composition ([3]; 3.85 mg/ml in water, before pH decrease): 8.80
- Dissolved ([3]; alone in water, pH 3): No
- Dissolved ([3]; alone in water, pH 4): No
- Dissolved ([3]; alone in water, pH 5): No
- Dissolved ([3]; alone in water, pH 5.5): No
- Dissolved ([3]; alone in water, pH 5.8): Yes
- Dissolved ([3]; alone in water, pH 6): Yes
- Dissolved ([3]; alone in water, pH 6.2): Yes
- Dissolved ([3]; alone in water, pH 6.4): Yes
- Dissolved ([3]; alone in water, pH 6.6): Yes
- Dissolved ([3]; alone in water, pH 6.8): Yes
- Dissolved ([3]; alone in water, pH 7): Yes
- Dissolved ([3]; alone in water, pH 7.5): Yes
- Dissolved ([3]; in water after 1 month storage at 25° C., pH 5.8): No
- Dissolved ([3]; in water after 1 month storage at 25° C., pH 6): No
- Dissolved ([3]; in water after 1 month storage at 25° C., pH 6.2): Yes
- Dissolved ([3]; in water after 1 month storage at 25° C., pH 6.4): Yes
- Dissolved ([3]; in water after 1 month storage at 25° C., pH 6.6): Yes
- Dissolved ([3]; in water after 1 month storage at 25° C., pH 6.8): Yes
- Dissolved ([3]; in water after 1 month storage at 25° C., pH 7): Yes
- Dissolved ([3]; in water after 1 month storage at 25° C., pH 7.5): Yes
- Dissolved ([4]; in the formulation 3 mg/ml Acetaminophen 10 mg/ml Ibuprofen, pH 6.2): Yes
- Dissolved ([4]; in the formulation 3 mg/ml Acetaminophen 10 mg/ml Ibuprofen, pH 6.3): Yes
- Dissolved ([4]; in the formulation 3 mg/ml Acetaminophen 10 mg/ml Ibuprofen, pH 6.4): Yes
- Dissolved ([4]; in the formulation 3 mg/ml Acetaminophen 10 mg/ml Ibuprofen, pH 6.6): Yes
- Dissolved ([4]; in the formulation 3 mg/ml Acetaminophen 10 mg/ml Ibuprofen, pH 7): Yes
- Dissolved ([4]; in the formulation Acetaminophen - Ibuprofen, 1 month, pH 6.2): No
- Dissolved ([4]; in the formulation Acetaminophen - Ibuprofen, 1 month, pH 6.3): Yes
- Dissolved ([4]; in the formulation Acetaminophen - Ibuprofen, 1 month, pH 6.4): Yes
- Dissolved ([4]; in the formulation Acetaminophen - Ibuprofen, 1 month, pH 6.6): Yes
- Dissolved ([4]; in the formulation Acetaminophen - Ibuprofen, 1 month, pH 7): Yes
- Dissolved ([4]; in the formulation Acetaminophen - Ibuprofen, 6 months, 25° C., pH 6.3): Yes
- Dissolved ([4]; in the formulation Acetaminophen - Ibuprofen, 6 months, 25° C., pH 6.4): Yes
- Dissolved ([4]; in the formulation Acetaminophen - Ibuprofen, 6 months, 25° C., pH 6.6): Yes
- Dissolved ([4]; in the formulation Acetaminophen - Ibuprofen, 6 months, 25° C., pH 7): Yes
Compound: CC(C)Cc1ccc(C(C)C(=O)O)cc1 (stereo not shown) [sodium ibuprofen 2H2O]
